{"source": "patent US10921312B2", "about": "(priority 2014, dated 2021)", "key": {"[1]": {"system": "iCell® neurons (human induced pluripotent stem cell-derived neurons)", "type": "cell-based"}, "Neuro2A cells": {"system": "Neuro2A cells", "type": "cell-based"}}, "note": "Entries after “also recorded” stand apart in the source; their conditions may differ."}
{"substance": "GT1b", "values": [{"measurement": "increase of sensitivity to neurotoxin polypeptide", "setting": "[1]", "value": "~7", "unit": "fold"}, {"measurement": "increase in sensitivity to neurotoxin", "setting": "Neuro2A cells", "value": "did not exhibit a comparable increase in sensitivity; also recorded: no increase in sensitivity"}]}
